Positions of bridges follow the written chain, without caps; N, C: chain ends. Residues, ends and D or L forms follow the SMILES beside them. No end group written: not given here.
Assays:
ASIC1a channel = conditions: cited from earlier work
From the text: Selective ligands targeting specific ASIC isoforms are invaluable for structural and functional investigations. Peptide ligands sourced from various animal venoms have emerged as such tools. […] Bot ...

[1] = test system: ASIC1a D355A mutant channel; conditions: ref [23],[28]; cited from earlier work
From the text: (§1) Electrophysiological experimentation confirmed the activity of recombinant S16K and A23K mutants against rat ASIC1a channels. […] This fact was in good agreement with molecular docking results that predicted tighter interactions of the lysine residue at position 23 with Asp355 and Glu357 residues of the channel. […] To confirm the critical role of th ...

[2] = test system: ASIC1a E357A mutant channel; conditions: ref [23],[28]; cited from earlier work
From the text: as §1

[3] = cited from earlier work; for analgesic effects: ref [16],[17]; for analgesic effect on thermal hypersensitivity caused by inflammation: ref [31],[32]
From the text: Selective ligands targeting specific ASIC isoforms are invaluable for structural and functional investigations. Peptide ligands sourced from various animal venoms have emerged as such tools. […] Bot ... || The 29-amino acid peptide Ugr9a-1, isolated from the venom of the northern sea anemone Urticina grebelnyi, represents a structural class of toxins termed “boundless β-hairpin”. […] While the significant involvement of ASIC3 channels in acid-induced, chronic neuropathic and inflammatory pain has been extensively reported, the role of ASIC1a remains less clear.

[4] = molecular target: rat ASIC3 channel (homomeric) (rat) (UniProt O35240)
rat ASIC3 channel = molecular target: T1, rat ASIC3 channel (Rattus norvegicus, UniProt O35240); assay: Two-electrode voltage clamp, rat ASIC3 in X. laevis oocytes; type: cell-based; conditions: pH 5.5 stimulus, mean ± S.E.M., 5 cells
T1 construct: expressed in transfected cells; host or cells: Xenopus laevis oocytes injected with mRNA made from pcDNA3.1-rat ASIC3
T1 sequence (O35240 1-533): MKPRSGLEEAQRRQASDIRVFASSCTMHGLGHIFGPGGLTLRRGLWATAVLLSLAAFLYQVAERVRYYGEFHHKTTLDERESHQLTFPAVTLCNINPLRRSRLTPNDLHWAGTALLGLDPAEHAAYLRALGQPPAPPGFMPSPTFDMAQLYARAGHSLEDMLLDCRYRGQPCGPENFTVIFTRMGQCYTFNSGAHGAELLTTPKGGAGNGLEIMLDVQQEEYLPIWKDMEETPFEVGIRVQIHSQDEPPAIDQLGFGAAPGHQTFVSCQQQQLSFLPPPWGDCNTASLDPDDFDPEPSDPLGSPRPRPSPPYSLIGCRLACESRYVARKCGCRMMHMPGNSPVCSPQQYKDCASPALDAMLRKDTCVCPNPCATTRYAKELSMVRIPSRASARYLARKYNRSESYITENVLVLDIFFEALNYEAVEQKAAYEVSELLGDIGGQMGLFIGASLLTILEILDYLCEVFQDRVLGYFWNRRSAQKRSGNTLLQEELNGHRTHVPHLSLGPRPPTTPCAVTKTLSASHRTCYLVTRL
Experimental: (§2) Figure 3 The effect of mutant peptides S16K and A23K on rat ASIC1a and ASIC3 channels. […] (B) Dose–response curves for the inhibitory effect of mutant peptides on ASIC1a. Each data point represents data from 5 cells. (C) Representative current traces of Ugr9-1, S16K, and A23K at a concentration of 12.5 µM on ASIC3. […] Each point represents data from 5 cells. The depicted currents were induced by a pH 5.5 stimulus following a conditioning pH of 7.4, with peptides applied for 30 s before the pH stimulus. The holding potential (Vh) was −50 mV, and the time interval between applications ranged from 1 to 2 min. Data are presented as mean ± S.E.M.
(§3) A small portion of the ovary was isolated from frogs under anesthesia induced by a 0.17% solution of procaine methanesulphonate (MS222) (Sigma), followed by treatment with collagenase (1 mg/mL) at room temperature for 2 h. Oocytes at stages IV and V, devoid of follicular membranes, were transferred to ND-96 medium (containing 96 mM NaCl, 5 mM HEPES, 2 mM KCl, 1.8 mM CaCl2, 1 mM MgCl2, pH 7.4). mRNA synthesis was performed from pcDNA3.1 vectors (Invitrogen, Carlsbad, CA, USA) containing the rat ASIC3 gene, as well as pCI vectors containing genes for rat ASIC1a, its mutant analogues, and ASIC1b. mRNA (2.5–10 ng) was then injected into the oocytes. For the ASIC1a/3 heteromeric channels, the mRNA encoding the ASIC1a and ASIC3 subunits were injected in a 1:5 ratio, respectively. Subsequently, the oocytes were incubated for 2–3 days at a temperature of 17–19 °C in ND96 medium supplemented with gentamicin and streptomycin (20 µg/mL each).
(§4) Whole-cell electrophysiological recordings of ASIC channels were conducted using a two-electrode voltage-clamp setup. Microelectrodes were filled with 3 M KCl. Recordings from oocytes were carried out at a holding potential of −50 mV, with data filtered at 10 Hz and sampled at a rate of 100 Hz using an L780M ADC (LCard, Moscow, Russia). The synchronized delivery of solutions into the chamber and recording of electrophysiological results were carried out using in-house software v.2. Activation of ASIC channels occurred through rapid pH changes in the solution, achieved by replacing the working solution in the chamber with ND96-based solutions at varying pH levels. Specifically, HEPES was substituted with 10 mM MES for pH 5.5–6.5 and MOPS for pH 6.7–7.0.
(§5) Fresh peptide solutions were meticulously prepared in ND96 buffer with a pH of 7.43 immediately before experiments, with strict control over the pH levels. Peptides were applied for 30 s at a conditioning pH of 7.43 before acid stimulation of the channel. The interval between applications was maintained at a minimum of 1.5 to 2 min.
(§6) Electrophysiological data analysis was conducted using OriginPro 2018 software (OriginLab, Northampton, MA, USA). Dose–response relationships for Ugr9a-1, S16K, and A23K peptides were fitted using a Hill function: F1(x) = A − A/(1 + (x/IC50)^nH), where F1(x) represents the amplitude of the current at concentration x of the peptide, A is the maximum amplitude of the current, IC50 is the half-maximum inhibitory concentration of the peptide, and nH is the Hill coefficient.

rat ASIC1a channel = molecular target: T2, rat ASIC1a channel (Rattus norvegicus, UniProt P55926); assay: Two-electrode voltage clamp, rat ASIC1a in X. laevis oocytes; type: cell-based; conditions: pH 5.5 stimulus, mean ± S.E.M., 5 cells
T2 construct: expressed in transfected cells; host or cells: Xenopus laevis oocytes injected with mRNA made from a pCI-rASIC1a plasmid
T2 sequence (P55926 1-526): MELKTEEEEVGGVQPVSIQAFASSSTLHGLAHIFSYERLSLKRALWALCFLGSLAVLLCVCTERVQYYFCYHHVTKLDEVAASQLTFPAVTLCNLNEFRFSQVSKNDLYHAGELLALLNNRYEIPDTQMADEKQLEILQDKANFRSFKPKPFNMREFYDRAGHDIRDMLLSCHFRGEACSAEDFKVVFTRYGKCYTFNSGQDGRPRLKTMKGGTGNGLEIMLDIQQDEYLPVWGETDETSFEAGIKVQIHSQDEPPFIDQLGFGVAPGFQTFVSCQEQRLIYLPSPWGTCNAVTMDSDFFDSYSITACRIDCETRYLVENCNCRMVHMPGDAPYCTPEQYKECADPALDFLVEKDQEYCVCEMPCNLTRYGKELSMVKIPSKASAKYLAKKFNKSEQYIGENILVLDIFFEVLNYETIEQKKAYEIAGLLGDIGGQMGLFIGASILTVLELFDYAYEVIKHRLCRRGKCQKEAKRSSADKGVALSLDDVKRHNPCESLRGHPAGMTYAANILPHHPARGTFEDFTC
Experimental: as §2, §3, §4, §5, §6

Mamb-1 (LKCYQHGKVVTCHRDMKFCYHNTGMPFRNLKLILQGCSSSCSETENNKCCSTDRCNK; ends and bridges not checked; cysteine pairing not given here; UniProt P0DKR6 22-78, looked up)
modulation of ASIC1-containing channels (ASIC1a channel; ref [14],[15]): negatively modulates ASIC1-containing channels but by stabilizing the closed state | effect of D355A channel mutation on inhibitory potential [1]: did not substantially alter the inhibitory potential | effect of E357A channel mutation on inhibitory potential [2]: did not substantially alter the inhibitory potential | analgesic effects [3]: demonstrate analgesic effects

Ugr9a-1 peptide from the venom of the sea anemone Urticina grebelnyi
IC50 of inhibition of the pH 5.5-evoked current of rASIC3, two-electrode voltage clamp on X. laevis oocytes [4]: 14.2 µM

PcTx1 (EDCIPKWKGCVNRHGDCCEGLECWKRRRSFEVCVPKTPKT; ends and bridges not checked; cysteine pairing not given here; UniProt P60514 1-40, looked up)
modulation of ASIC1a (ASIC1a channel; ref [11],[12],[13]): selectively modulates ASIC1a and ASIC1a-containing channels by stabilizing the desensitized state | analgesic effects [3]: demonstrate analgesic effects

CC[C@H](C)[C@H](N)C(=O)N[C@@H](CO)C(=O)N[C@H](C(=O)N[C@@H](CC(=O)O)C(=O)N1CCC[C@H]1C(=O)N1CCC[C@H]1C(=O)N[C@H]1CSSC[C@@H]2NC(=O)[C@H](CC(N)=O)NC(=O)CNC(=O)[C@H](CCCCN)NC(=O)CNC(=O)[C@H](CC(=O)O)NC(=O)[C@H](CCCNC(=N)N)NC(=O)[C@H](Cc3c[nH]cn3)NC(=O)[C@H](Cc3ccc(O)cc3)NC(=O)[C@H](CSSC[C@@H](C(=O)NCC(=O)N[C@@H](C)C(=O)N[C@H](C(=O)O)C(C)C)NC(=O)CNC(=O)[C@H](Cc3ccc(O)cc3)NC(=O)[C@H](C)NC(=O)[C@H](CC(=O)O)NC(=O)[C@H](Cc3ccc(O)cc3)NC(=O)[C@H](C(C)C)NC2=O)NC(=O)[C@H](Cc2ccccc2)NC(=O)[C@H](CCCNC(=N)N)NC1=O)[C@@H](C)CC [S16K] (H-ISIDPPCRFCYHRDGKGNCVYDAYGCGAV-OH; disulfide 7-19, 10-26)
nH (rat ASIC3 channel; inhibition of rat ASIC3, conditioning pH 7.4): 2.16 ± 0.24 | IC50 (rat ASIC3 channel; rat ASIC3, X. laevis oocytes, TEVC, Vh −50 mV, conditioning pH 7.4, peptide 30 s before stimulus): 35.8 ± 4.03 µM | Hill slope (nH) (rat ASIC1a channel; inhibition of rat ASIC1a, conditioning pH 7.4): 2.86 ± 0.09 | IC50 (rat ASIC1a channel; rat ASIC1a, X. laevis oocytes, TEVC, Vh −50 mV, conditioning pH 7.4, peptide 30 s before stimulus, read-out: half-maximal inhibitory concentration (IC50)): 22.7 ± 0.42 µM

O=C(O)C[C@H](C(=O)O)[C@@H](OC(=O)C1=Cc2cc(O)c(O)cc2[C@@H](c2ccc(O)c(O)c2)[C@@H]1C(=O)O[C@@H](C(=O)O)[C@H](CC(=O)O)C(=O)O)C(=O)O [sevanol]
analgesic effect on thermal hypersensitivity caused by inflammation [3]: substantial analgesic effects

COc1cc2c(cc1O)[C@H](Cc1ccc(Oc3cc(C[C@@H]4NCCc5cc(OC)c(O)cc54)ccc3O)cc1)NCC2 [lindoldhamine]
analgesic effect on thermal hypersensitivity caused by inflammation [3]: substantial analgesic effects

Source: article PMC11432795, “Mutagenesis of the Peptide Inhibitor of ASIC3 Channel Introduces Binding to Thumb Domain of ASIC1a but Reduces Analgesic Activity” (Marine Drugs, 2024)
